The source of these data is patent publication US8211633B2, “Viral variants with altered susceptibility to nucleoside analogs and uses thereof” (priority 2002, dated 2012).

The test system of assay [1] is HBV. As to the kind of experiment: Serum HBV DNA level in treated patients (Digene Hybrid Capture II capture hybridization assay). Format: in vivo, human. As to conditions: for HBV DNA: patient A, on LMV. The source says: (§1) Patient A is a person with chronic hepatitis B presented on Day 0 (9 Jul. 1999) with raised serum HBV DNA levels (>2000 pg/ml) and was commenced on LMV treatment immediately (FIG. 2). The patient A was HBsAg positive and anti-HBe positive. Following the initiation of LMV treatment the HBV DNA levels fell to 8 pg/ml over 54 days of therapy. […] By Day 241 the serum ALT peaked at 741 IU/l. The HBV DNA was sequenced and LMV resistant virus was detected. […] The patient was started on open label ETV plus LMV.
Patient B is a liver transplant patient. […] The patient was treated with LMV prior to ETV. The patient is currently on ETV treatment. […] The HBV DNA from this sample was further characterized by sequencing.
Hepatitis B surface antigen (HBsAg), hepatitis B e antigen (HBeAg), anti-HBe and hepatitis B core antigen (HBcAg) specific IgG and IgM were measured using commercially available immunoassays (Abbott Laboratories, North Chicago, Ill., USA). Hepatitis B viral DNA levels were measured using a capture hybridization assay according to the manufacturer's directions (Digene Hybrid Capture II, Digene Diagnostics Inc., Beltsville, Md.). The manufacturers stated cut-off for detecting HBV viremia in clinical specimens was 0.7×10^6 copies/ml or 2.5 pg/ml, [Hendricks D A, et al., Am J Clin Pathol 104: 537-46, 1995].

Assay [2] in a line: Serum ALT level in treated patient A. In kind it is in vivo, human. Conditions: on LMV.
Excerpt: as §1

For assay [3], the system named is HBV encoding rtI169T+rtV173L+rtL180M+rtM204V. The assay is described as follows: Antiviral testing with recombinant HBV/baculovirus in HepG2 cells, replicative intermediates by quantitative real-time PCR, quadruple mutant. In kind it is cell-based, hepatitis B virus. As to conditions: quadruple mutant rtI169T+rtV173L+rtL180M+rtM204V vs wild type; especially at concentrations up to 0.5 μM ETV; FIG. 11. On the procedure: The sensitivity/resistance profile of HBV mutants to entecavir was examined in vitro using recombinant HBV/baculovirus. The procedure for analysing the resistance profile is outlined in the following Examples 7-14.
Sf21 insect cells were maintained in supplemented Grace's insect medium further supplemented with 10% v/v heat-inactivated fetal bovine serum (Gibco BRL, Gaithersburg, Md.) in humidified incubator at 28 C with CO2. HepG2 cells were maintained in minimal essential medium supplemented with 10% v/v heat-inactivated fetal bovine serum (MEM-FBS). HepG2 cells were grown in humidified 37° C. incubators at 5% v/v CO2.
The recombinant HBV/baculovirus system used for antiviral testing has been previously described (Delaney et al., Antimicrob Agents Chemother 45(6): 1705-[…], 2001). […] The nucleotide sequence of the plasmid and the point mutations generated by site directed mutagenesis were confirmed by sequencing using the ABI Prism Big Dye Terminator Cycle Sequencing Ready Reaction Kit according to the manufacturer's specifications (Perkin Elmer, Cetus Norwalk, Conn.). […]
HepG2 cells were seeded at approximately 20-40% confluency and then were grown for 16-24 hours before infection. On the day of infection, triplicate plates of cells were trypsinized, and viable cell number was determined with a hemocytometer using Trypan blue exclusion. […]
On the technique in general: In qPCR the cycle at which signal appears reflects the starting amount.

Assay [4] has as its system HBV. As to conditions: four week dose-escalation trial; highest dose tested (1 mg/daily); cited from earlier work.
The subject of assay [5] is WHV. Conditions: chronically-infected woodchucks; cited from earlier work.
[6] abbreviates: day 382 post LMV treatment, day blinded ETV vs LMV phase started.

With `Nc1ccn([C@@H]2CS[C@H](CO)O2)c(=O)n1` [LMV, (−)-β-2′-deoxy-3′-thiacytidine], the “HBV DNA” value in assay [1] (day 54 post LMV treatment) stood at 8 pg/mL; in assay [1] (day 173 post LMV treatment) it was 837 pg/mL; in assay [1] (day 199 post LMV treatment), 1826 pg/mL; in assay [1] (day 241 post LMV treatment), 930 pg/mL; in assay [1] (day 283 post LMV treatment), 1631 pg/mL; in assay [1] (day 312 post LMV treatment), 1539 pg/mL. In addition, the “HBV DNA” value in assay [1] (day 348 post LMV treatment) worked out at 1605 pg/mL; in assay [1] (setting [6]), 1303 pg/mL. Also, the ALT worked out at 510 IU/L in assay [2] (day 54 post LMV treatment); 211 IU/L in assay [2] (day 87 post LMV treatment); 106 IU/L in assay [2] (day 115 post LMV treatment); 186 IU/L in assay [2] (day 173 post LMV treatment); 233 IU/L in assay [2] (day 199 post LMV treatment); 741 IU/L in assay [2] (day 241 post LMV treatment). Moreover, the ALT in assay [2] (day 283 post LMV treatment) is on record as 334 IU/L; in assay [2] (day 312 post LMV treatment), 238 IU/L; in assay [2] (day 348 post LMV treatment) it was 349 IU/L; in assay [2] (setting [6]), 317 IU/L.
As for `C=C1[C@H](CO)[C@@H](O)C[C@@H]1n1cnc2c(=O)[nH]c(N)nc21` [ETV], the “HBV DNA levels” value in assay [1] (patient B (liver transplant, LMV before ETV), during ETV treatment) is “less than 5 pg/ml”; in assay [1] (patient B, at 532 days ETV treatment (3857 days post transplant), rise), 993 pg/mL. Further, the “sensitivity to ETV (HBV DNA replicative intermediates by quantitative PCR)” value in assay [3] was “reduced sensitivity to ETV”. The “mean reduction in viremia” value in assay [4] is 2.5 log10. The “efficacy against WHV” value in assay [5] is listed as “demonstrated efficacy”.
